# Experimental data published in US11001590B2, “Pyrazolopyrimidine derivatives” (BAYER ANIMAL HEALTH GMBH, priority 2016, dated 2021).
# What was measured:
# [1] = test system: Dirofilaria immitis microfilariae; assay: In vitro assay 3: Dirofilaria immitis microfilariae (DIROIM L1), motility; conditions: 72 h, reduction of motility vs negative control, 72 h incubation
# [2] = biological target: C. elegans Slo-1a (Caenorhabditis elegans, UniProt Q95V25); assay: In vitro assay 1: C. elegans Slo-1a, action at a recombinant C. elegans CHO cell line (membrane potential measurement)
# [3] = log P by HPLC on reversed phase columns (Method L0; [a] acidic, [b] neutral range)
# C. elegans Slo-1a, sequence (Q95V25 whole entry): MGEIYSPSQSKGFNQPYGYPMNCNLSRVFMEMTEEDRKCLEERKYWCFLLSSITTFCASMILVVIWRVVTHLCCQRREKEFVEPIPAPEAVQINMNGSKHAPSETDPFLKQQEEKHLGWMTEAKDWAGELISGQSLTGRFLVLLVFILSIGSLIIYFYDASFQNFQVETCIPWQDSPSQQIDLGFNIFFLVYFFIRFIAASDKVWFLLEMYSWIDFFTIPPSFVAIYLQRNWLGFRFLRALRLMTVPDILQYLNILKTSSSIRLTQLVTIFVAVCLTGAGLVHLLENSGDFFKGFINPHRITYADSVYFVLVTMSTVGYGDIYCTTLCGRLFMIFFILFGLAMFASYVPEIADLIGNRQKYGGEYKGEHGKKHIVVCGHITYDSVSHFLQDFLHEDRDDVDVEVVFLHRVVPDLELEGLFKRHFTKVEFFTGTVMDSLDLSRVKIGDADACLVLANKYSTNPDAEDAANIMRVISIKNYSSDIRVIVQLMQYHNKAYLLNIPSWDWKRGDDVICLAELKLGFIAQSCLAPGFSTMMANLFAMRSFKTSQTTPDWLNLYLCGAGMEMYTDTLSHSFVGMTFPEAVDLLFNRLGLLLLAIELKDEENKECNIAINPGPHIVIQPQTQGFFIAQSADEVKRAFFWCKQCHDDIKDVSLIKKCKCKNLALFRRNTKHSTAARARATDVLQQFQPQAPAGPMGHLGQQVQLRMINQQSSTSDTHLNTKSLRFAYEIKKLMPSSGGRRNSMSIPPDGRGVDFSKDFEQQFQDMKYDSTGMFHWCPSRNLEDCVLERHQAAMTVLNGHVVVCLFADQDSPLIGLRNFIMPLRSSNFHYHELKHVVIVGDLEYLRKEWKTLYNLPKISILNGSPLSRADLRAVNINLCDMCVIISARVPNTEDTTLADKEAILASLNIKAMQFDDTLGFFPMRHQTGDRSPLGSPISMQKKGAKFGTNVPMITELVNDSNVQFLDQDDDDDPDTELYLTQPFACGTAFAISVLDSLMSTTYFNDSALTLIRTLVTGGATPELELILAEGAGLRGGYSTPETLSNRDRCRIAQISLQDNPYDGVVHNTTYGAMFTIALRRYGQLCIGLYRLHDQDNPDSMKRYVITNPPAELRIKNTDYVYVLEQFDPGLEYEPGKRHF
Compound,EC50 [1],EC50 [2],chromatographic logP [3]
Cc1nn2c(C(C)C)c(C(=O)N[C@H]3CCc4ccccc43)cnc2c1-c1cccc(Br)c1 [Example 205],< 0.1 µg/mL,0.0251 µM,5.31
Cc1nn2c(C(C)C)c(C(=O)N[C@H]3CCc4ccccc43)cnc2c1-c1ccc(Br)cc1 [Example 207],< 10 µg/mL,0.0501 µM,5.31
Cc1nn2c(C(C)C)c(C(=O)NC3COc4ccccc43)cnc2c1-c1c(F)cccc1F (stereo not drawn) [Example 210],< 1 µg/mL,0.158 µM,3.99
CCS(=O)(=O)c1nn2c(C(C)C)c(C(=O)N[C@H]3CCc4ccccc43)cnc2c1-c1cc(Cl)cc(Cl)c1 [Example 211],< 10 µg/mL,1.26 µM,4.62
CCS(=O)(=O)c1nn2c(C(C)C)c(C(=O)N[C@H]3CCOc4ccccc43)cnc2c1-c1cc(Cl)cc(Cl)c1 [Example 212],< 10 µg/mL,0.501 µM,4.37
CC(C)c1c(C(=O)N[C@H]2CCOc3ccccc32)cnc2c(-c3cc(Cl)cc(Cl)c3)c(S(=O)(=O)C(C)C)nn12 [Example 217],< 10 µg/mL,0.398 µM,4.57
Cc1nn2c(C(C)C)c(C(=O)N[C@H]3CCOc4ccccc43)cnc2c1-c1ccc(F)cc1Cl [Example 218],< 0.1 µg/mL,0.00158 µM,4.51
Cc1nn2c(C(C)C)c(C(=O)N[C@H]3CCOc4ccccc43)cnc2c1-c1ccc(Cl)c(F)c1 [Example 220],< 1 µg/mL,0.02 µM,5.08
Cc1nn2c(C(C)C)c(C(=O)N[C@H]3CCOc4ccccc43)cnc2c1-c1cnc(F)c(F)c1 [Example 221],< 1 µg/mL,0.01 µM,4.13
CCC(C)c1c(C(=O)N[C@H]2CCc3ccccc32)cnc2c(-c3c(F)cccc3Cl)c(C)nn12 (stereo partly drawn) [Example 222],< 0.1 µg/mL,0.0398 µM,4.98
Cc1nn2c(C(C)C)c(C(=O)N[C@H]3CCc4ccccc43)cnc2c1-c1c(Cl)cccc1Cl [Example 223],< 1 µg/mL,0.0126 µM,4.87
Cc1nn2c(CC(C)C)c(C(=O)N[C@H]3CCc4ccccc43)cnc2c1-c1c(F)cccc1Cl [Example 224],< 1 µg/mL,0.0316 µM,4.82
Cc1nn2c(CC(C)C)c(C(=O)N[C@H]3CCOc4ccccc43)cnc2c1-c1c(F)cccc1Cl [Example 225],< 0.1 µg/mL,0.0126 µM,4.56
Cc1nn2c(Cc3ccc(F)cc3)c(C(=O)N[C@H]3CCc4ccccc43)cnc2c1-c1c(F)cccc1Cl [Example 227],< 10 µg/mL,2 µM,4.92
Cc1nn2c(Cc3ccc(F)cc3)c(C(=O)N[C@H]3CCOc4ccccc43)cnc2c1-c1c(F)cccc1Cl [Example 228],< 1 µg/mL,3.16 µM,4.72
CC(C)c1c(C(=O)N[C@H]2CCc3ccccc32)cnc2c(-c3cc(Cl)cc(Cl)c3)c(S(C)(=O)=O)nn12 [Example 229],< 1 µg/mL,0.0631 µM,4.35
Cc1nn2c(C(C)C)c(C(=O)N[C@H]3CCOc4ccccc43)cnc2c1-c1cnccc1Cl [Example 231],< 1 µg/mL,0.0158 µM,3.9
Cc1nn2c(C(C)C)c(C(=O)N[C@H]3CCOc4ccccc43)cnc2c1-c1ccc2c(c1)N(C)CC2 [Example 238],< 10 µg/mL,0.158 µM,4.13
Cc1nn2c(C(C)C)c(C(=O)N[C@H]3CCOc4ccccc43)cnc2c1-c1ccc2c(c1)OCO2 [Example 239],< 10 µg/mL,0.0316 µM,4.08
Cc1nn2c(C(C)C)c(C(=O)N[C@H]3CCOc4ccccc43)cnc2c1-c1ccc2cc[nH]c2c1 [Example 243],< 10 µg/mL,0.631 µM,3.76
Cc1nn2c(C(C)C)c(C(=O)N[C@H]3CCOc4ccccc43)cnc2c1-c1ccc2c(c1F)OCO2 [Example 245],< 1 µg/mL,0.02 µM,4.18
COc1cccc(-c2c(C)nn3c(C(C)C)c(C(=O)N[C@H]4CCOc5ccccc54)cnc23)c1Cl [Example 247],< 1 µg/mL,0.01 µM,4.19
Cc1nn2c(C(C)C)c(C(=O)N[C@H]3CCOc4ccccc43)cnc2c1-c1ccc2c(c1)NCC2 [Example 248],< 10 µg/mL,0.0501 µM,2.2
COc1cc(-c2c(C)nn3c(C(C)C)c(C(=O)N[C@H]4CCOc5ccccc54)cnc23)cc(OC)c1OC [Example 249],< 1 µg/mL,0.158 µM,3.94
Cc1nn2c(C(C)C)c(C(=O)N[C@H]3CCOc4ccccc43)cnc2c1-c1ccc2c(c1)OC(F)(F)O2 [Example 251],< 0.1 µg/mL,0.00316 µM,5.03

Compound,EC50 [1],EC50 [2],chromatographic logP [3]
Cc1nn2c(C(C)C)c(C(=O)N[C@H]3CCOc4ccccc43)cnc2c1-c1ccc2c(c1)CC(=O)N2 [Example 252],< 10 µg/mL,1.26 µM,2.87
Cc1nn2c(C(C)C)c(C(=O)N[C@H]3CCOc4ccccc43)cnc2c1-c1cc(O)c(F)c(F)c1 [Example 259],< 1 µg/mL,0.0158 µM,3.61
Cc1nn2c(C(C)C)c(C(=O)N[C@H]3CCOc4ccccc43)cnc2c1-c1ccccc1C#N [Example 264],< 1 µg/mL,0.0251 µM,3.68
Cc1nn2c(C(C)C)c(C(=O)N[C@H]3CCOc4ccccc43)cnc2c1-c1cccc2c1OCO2 [Example 266],< 1 µg/mL,0.002 µM,4.02
Cc1nc2c(-c3cccc(Cl)c3Cl)c(C)nn2c(C)c1C(=O)N[C@H]1CCOc2ccccc21 [Example 267],< 10 µg/mL,0.158 µM,3.86
Cc1nn2c(C(C)C)c(C(=O)N[C@H]3CCc4ccccc43)cnc2c1-c1cccc(S(C)(=O)=O)c1 [Example 288],< 10 µg/mL,0.2 µM,3.57
Cc1nn2c(C(C)C)c(C(=O)N[C@H]3CCc4ccccc43)cnc2c1-c1cccnc1 [Example 297],< 10 µg/mL,1.26 µM,2.19
CC(=O)Nc1cccc(-c2c(C)nn3c(C(C)C)c(C(=O)N[C@H]4CCc5ccccc54)cnc23)c1 [Example 298],< 10 µg/mL,1.26 µM,3.3
Cc1nn2c(C3CC3)c(C(=O)N[C@H]3CCc4ccccc43)cnc2c1-c1cccc(C(F)(F)F)c1 [Example 304],< 1 µg/mL,0.02 µM,4.55
Cc1nn2c(C(C)C)c(C(=O)N[C@H]3CCc4ccccc43)cnc2c1-c1cccc(NS(C)(=O)=O)c1 [Example 308],< 10 µg/mL,1.58 µM,3.44
Cc1nn2c(C(C)C)c(C(=O)N[C@H]3CCc4ccccc43)cnc2c1-c1cccc(OC(F)(F)F)c1 [Example 309],< 10 µg/mL,0.0316 µM,5.48
COc1cc(-c2c(C)nn3c(C(C)C)c(C(=O)N[C@H]4CCc5ccccc54)cnc23)cc(C(F)(F)F)c1 [Example 312],< 10 µg/mL,0.0251 µM,5.41
Cc1nn2c(C(C)C)c(C(=O)N[C@H]3CCc4ccccc43)cnc2c1-c1ccnc(Cl)c1 [Example 313],< 10 µg/mL,0.158 µM,4.23
Cc1nn2c(C(C)C)c(C(=O)N[C@H]3CCc4ccccc43)cnc2c1-c1cncc(Cl)c1 [Example 314],< 0.1 µg/mL,0.0158 µM,4.19
Cc1nn2c(C(C)C)c(C(=O)N[C@H]3CCc4ccccc43)cnc2c1-c1cccc(NC(=O)C(F)(F)F)c1 [Example 315],< 1 µg/mL,0.251 µM,4.28
Cc1nn2c(C(C)C)c(C(=O)N[C@H]3CCc4ccccc43)cnc2c1-c1cccc(OCC2CC2)c1 [Example 319],< 1 µg/mL,0.0251 µM,5.28
Cc1nn2c(C(C)C)c(C(=O)N[C@H]3CCc4ccccc43)cnc2c1-c1cccc(OCC#N)c1 [Example 320],< 10 µg/mL,0.0501 µM,4.09
Cc1nn2c(C(C)C)c(C(=O)N[C@H]3CCc4ccccc43)cnc2c1-c1cccc(OC(C)C)c1 [Example 321],< 1 µg/mL,0.01 µM,5.28
Cc1nn2c(C(C)C)c(C(=O)N[C@H]3CCc4ccccc43)cnc2c1-c1cccc(N2CCCC2)c1 [Example 329],< 10 µg/mL,0.0251 µM,5.44
Cc1nn2c(C(C)C)c(C(=O)N[C@H]3CCc4ccccc43)cnc2c1-c1ccc(OC(F)(F)F)cc1 [Example 331],< 10 µg/mL,0.251 µM,5.41
Cc1nn2c(C(C)C)c(C(=O)N[C@H]3CCc4ccccc43)cnc2c1-c1ccc(C(F)(F)F)cc1 [Example 332],< 1 µg/mL,0.0158 µM,5.32
Cc1nn2c(C(C)C)c(C(=O)N[C@H]3CCc4ccccc43)cnc2c1-c1ccc(C(F)F)cc1 [Example 334],< 10 µg/mL,0.0251 µM,4.63
COCc1ccc(-c2c(C)nn3c(C(C)C)c(C(=O)N[C@H]4CCc5ccccc54)cnc23)cc1 [Example 340],< 1 µg/mL,0.0398 µM,4.41
CNc1ccc(-c2c(C)nn3c(C(C)C)c(C(=O)N[C@H]4CCc5ccccc54)cnc23)cc1 [Example 341],< 10 µg/mL,0.2 µM,3.32
Cc1nn2c(C(C)C)c(C(=O)N[C@H]3CCc4ccccc43)cnc2c1-c1ccc(N(C)C)cc1 [Example 342],< 10 µg/mL,0.2 µM,3.91
